Here are results for four molecules from patent US6444617B1, “Fused-heterocycle dicarboxylic acid diamide derivatives or salts thereof, herbicide and usage thereof” (Nihon Nohyaku Co., Ltd., priority 1998, dated 2002).

Type in all cases: in vivo
Series [1] relates to barnyard grass (Echinochloa crus-galli Beauv.). As to the kind of experiment: Test Example 1: herbicidal effect on paddy field weeds before emergence. As to conditions: Dosage 5 kg/ha. The procedure, abridged:
(§1)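 Soil in pots is brought to paddy state and seeded with barnyard grass and bulrush; before germination, the soil receives a predetermined dosage of test compound in solution. After twenty-one days, control rate relative to untreated pots is calculated and graded.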

For series [2], the system named is bulrush (Scirpus juncoides Roxb.). Described as above. As to conditions: Dosage 5 kg/ha. The procedure, abridged: as §1
For series [3], the system named is barnyard grass (Echinochloa crus-galli Beauv.). In words: Test Example 2: herbicidal effect on paddy field weeds after emergence. As to conditions: Dosage 5 kg/ha; one-leaved stage; 21 days after treatment. The procedure, abridged: (§2)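 Weeds in flooded paddy-soil pots were grown to the one-leaved stage, then the soil was treated with the compound solution at a set dosage.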

Series [4] deals with bulrush (Scirpus juncoides Roxb.). Described as above. The following applies: Dosage 5 kg/ha; one-leaved stage; 21 days after treatment. The procedure, abridged: as §2
The test system of series [5] is monochoria (Monochoria vaginalis Presl). Described as above. As to conditions: Dosage 5 kg/ha; one-leaved stage; 21 days after treatment. The essentials: as §2
Series [6] has as its system barnyard grass (Echinochloa crus-galli Beauv.), Ec. In words: Test Example 3: herbicidal effect on upland weeds before emergence. As to conditions: dosage 5 kg/ha. The essentials: (§3)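 Test compound, formulated as a liquid at a fixed concentration, is sprayed before weed emergence. Two weeks later, kill rate is derived and herbicidal activity is rated.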
The subject of series [7] is bird's eye speedwell (Veronica persica Poir.), Vp. Described as above. As to conditions: dosage 5 kg/ha. The procedure, abridged:
as §3

The test system of series [8] is cleavers (Galium aparine L.), Ga. The description is as above. The following applies: dosage 5 kg/ha. The procedure, abridged: as §3
The subject of series [9] is cocklebur (Xanthium strumarium L.), Xs. The series is described as above. As to conditions: dosage 5 kg/ha. The procedure, abridged: as §3
Series [10] has as its system forxtail grass (Alopecurus aequalis var. amurensis Ohwi), Am. The series is described as above. The following applies: foxtail grass, dosage 5 kg/ha. The essentials: as §3
Series [11] has as its system velvetleaf (Abutilon theophtasti L.), At. Described as above. As to conditions: dosage 5 kg/ha. The essentials:
as §3

The test system of another series is soybean plant (So). As to the kind of experiment: Test Example 3: phytotoxicity to upland crop plants, treatment before emergence. The following applies: dosage 5 kg/ha. The procedure, abridged:
(§4)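 Pre-emergence spray of a liquid preparation at a prescribed compound concentration. Soybean and wheat injury was scored against a phytotoxicity criterion 14 days after treatment, alongside weed control.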

A further series concerns wheat (Wh). The series is described as above. As to conditions: dosage 5 kg/ha. The essentials: as §4
Series [12] has as its system barnyard grass (Echinochloa crus-galli Beauv.), Ec. In words: Test Example 4: herbicidal effect on upland weeds after emergence. The following applies: dosage 5 kg/ha; sprayed after emergence; judged 14 days after treatment. The procedure, abridged:
(§5)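 Weeds and soybean grown in soil-filled vats to set leaf stages, then sprayed post-emergence with the compound at a prescribed concentration. Weed-killing rate and crop phytotoxicity judged 14 days after treatment.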

Series [13] has as its system bird's eye speedwell (Veronica persica Poir.), Vp. Described as above. The following applies: dosage 5 kg/ha; sprayed after emergence; judged 14 days after treatment. The essentials:
as §5

The subject of series [14] is cleavers (Galium aparine L.), Ga. Described as above. The following applies: dosage 5 kg/ha; sprayed after emergence; judged 14 days after treatment. The essentials: as §5
In series [15] the test system is cocklebur (Xanthium strumarium L.), Xs. Described as above. As to conditions: dosage 5 kg/ha; sprayed after emergence; judged 14 days after treatment. The essentials:
as §5

In series [16] the test system is forxtail grass (Alopecurus aequalis var. amurensis Ohwi), Am. Described as above. As to conditions: dosage 5 kg/ha; sprayed after emergence; judged 14 days after treatment. The procedure, abridged: as §5
For series [17], the system named is velvetleaf (Abutilon theophtasti L.), At. The description is as above. As to conditions: dosage 5 kg/ha; sprayed after emergence; judged 14 days after treatment. The procedure, abridged: as §5
The test system of the next series is soybean plant. In words: Test Example 4: phytotoxicity to upland crop plants, treatment after emergence. As to conditions: dosage 5 kg/ha, sprayed after emergence, judged 14 days after treatment. The essentials: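 Upland weeds and crop plants (soybean, wheat) are grown from seed in soil until they reach given leaf stages, then treated by spraying with the compound-containing agent; effects are judged two weeks later.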

Another series concerns wheat. Described as above. The following applies: dosage 5 kg/ha, sprayed after emergence, judged 14 days after treatment. The essentials:
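Seeds sown in soil and covered. Plants raised to specified leaf stages. Agent with test compound at a prescribed concentration sprayed. Herbicidal effect and crop damage scored after 14 days as weed-killing rate.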

Take `CCCNC(=O)c1nc2c(cc1C(=O)Nc1c(CC)ccc(Cl)c1CC)CCCO2` [compound 414]: the “Pre-emergence treatment Barnyard grass (herbicidal effect)” value (“Pre-emergence treatment Barnyard grass” below) in series [1] was 5 (Weed-killing rate is 100%.). Further, the “Pre-emergence treatment Bulrush (herbicidal effect)” value (“Pre-emergence treatment Bulrush” for short) in series [2] is 5 (Weed-killing rate is 100%.). Besides, the “Post-emergence treatment Barnyard grass (herbicidal effect)” value (shortened to “Post-emergence treatment Barnyard grass”) in [3] is 5 (Weed-killing rate is 100%.). Moreover, the “Post-emergence treatment Bulrush (herbicidal effect)” value (“Post-emergence treatment Bulrush” below) in series [4] is listed as 5 (Weed-killing rate is 100%.). Also, the “Post-emergence treatment Monochoria (herbicidal effect)” value (shortened to “Post-emergence treatment Monochoria”) in series [5] was 5 (Weed-killing rate is 100%.). For the same molecule, the “Herbicidal effect Ec” value in [6] and in series [12] was 5 (Weed-killing rate is 100%.) throughout. Besides, the “Herbicidal effect Vp” value in [7] and in [13] was 5 (Weed-killing rate is 100%.) throughout. The “Herbicidal effect Ga” value in [8] and in [14] was 5 (Weed-killing rate is 100%.) each time. The “Herbicidal effect Xs” value in [9] and in series [15] was 5 (Weed-killing rate is 100%.) each time. Further, the “Herbicidal effect Am” value in series [10] and in [16] was 5 (Weed-killing rate is 100%.) throughout. Also, the “Herbicidal effect At” value in series [11] and in series [17] was 5 (Weed-killing rate is 100%.) in each case. The “Phytotoxicity So” value with soybean plant (So) and with soybean plant was 4 (Crop-killing rate is 90-99%.) throughout. Besides, the “Phytotoxicity Wh” value with wheat (Wh) and in the series on wheat was 5 (Crop-killing rate is 100%.) throughout.

With `Cc1c(Cl)cccc1NC(=O)c1cc2sccc2nc1C(=O)NC1CCCC1` [compound 892], the “Pre-emergence treatment Barnyard grass” value in series [1] was 5 (Weed-killing rate is 100%.). In addition, in series [2], the “Pre-emergence treatment Bulrush” value is 5 (Weed-killing rate is 100%.). In addition, the “Post-emergence treatment Barnyard grass” value in series [3] is 5 (Weed-killing rate is 100%.). The “Post-emergence treatment Bulrush” value in [4] is reported as 5 (Weed-killing rate is 100%.). The “Post-emergence treatment Monochoria” value in series [5] was 5 (Weed-killing rate is 100%.). Besides, the “Herbicidal effect Ec” value in series [6] and in [12] was 5 (Weed-killing rate is 100%.) each time. In addition, the “Herbicidal effect Vp” value in series [7] and in [13] was 5 (Weed-killing rate is 100%.) throughout. The “Herbicidal effect Ga” value in series [8] was 5 (Weed-killing rate is 100%.); in series [14], 4 (Weed-killing rate is 90-99%.). Also, the “Herbicidal effect Xs” value in series [9] and in [15] was 4 (Weed-killing rate is 90-99%.) throughout. Also, the “Herbicidal effect Am” value in series [10] and in series [16] was 5 (Weed-killing rate is 100%.) each time. The “Herbicidal effect At” value in series [11] and in series [17] was 5 (Weed-killing rate is 100%.) throughout. The “Phytotoxicity So” value with soybean plant (So) and in the series with soybean plant was 3 (Crop-killing rate is 70-89%.) throughout. Further, the “Phytotoxicity Wh” value in the series with wheat (Wh) and in the series with wheat was 4 (Crop-killing rate is 90-99%.) throughout.

As for `CCNC(=O)c1nc2sccc2cc1C(=O)Nc1c(CC)ccc(Cl)c1CC` [compound 798], the “Pre-emergence treatment Barnyard grass” value in series [1] is 5 (Weed-killing rate is 100%.). For the same molecule, in [2], the “Pre-emergence treatment Bulrush” value is recorded as 5 (Weed-killing rate is 100%.). Also, the “Post-emergence treatment Barnyard grass” value in series [3] is 5 (Weed-killing rate is 100%.). Further, the “Post-emergence treatment Bulrush” value in series [4] is reported as 5 (Weed-killing rate is 100%.). In addition, in series [5], the “Post-emergence treatment Monochoria” value is 5 (Weed-killing rate is 100%.). Besides, the “Herbicidal effect Ec” value in series [6] and in [12] was 5 (Weed-killing rate is 100%.) each time. Also, the “Herbicidal effect Vp” value in [7] and in series [13] was 5 (Weed-killing rate is 100%.) throughout. Moreover, the “Herbicidal effect Ga” value in series [8] and in series [14] was 5 (Weed-killing rate is 100%.) in each case. The “Herbicidal effect Xs” value in [9] and in series [15] was 5 (Weed-killing rate is 100%.) in each case. Besides, the “Herbicidal effect Am” value in series [10] and in [16] was 5 (Weed-killing rate is 100%.) in each case. Also, the “Herbicidal effect At” value in [11] and in series [17] was 5 (Weed-killing rate is 100%.) each time. Further, the “Phytotoxicity So” value in the series with soybean plant (So) and with soybean plant was 4 (Crop-killing rate is 90-99%.) in each case. In addition, the “Phytotoxicity Wh” value with wheat (Wh) and in the series with wheat was 5 (Crop-killing rate is 100%.) each time.

As to `CCc1ccc(Cl)c(CC)c1NC(=O)c1cc2ccccc2nc1C(=O)NC1CCCC1` [359-6], the “Pre-emergence treatment Barnyard grass” value in [1] is 5 (Weed-killing rate is 100%.). For the same molecule, in series [2], the “Pre-emergence treatment Bulrush” value was 5 (Weed-killing rate is 100%.). Moreover, the “Post-emergence treatment Barnyard grass” value in series [3] is listed as 5 (Weed-killing rate is 100%.). In addition, the “Post-emergence treatment Bulrush” value in series [4] is given as 5 (Weed-killing rate is 100%.). Also, the “Post-emergence treatment Monochoria” value in series [5] is on record as 5 (Weed-killing rate is 100%.). Besides, the “Herbicidal effect Ec” value in [6] and in series [12] was 5 (Weed-killing rate is 100%.) in each case. Besides, the “Herbicidal effect Vp” value in series [7] and in [13] was 5 (Weed-killing rate is 100%.) in each case. For the same molecule, the “Herbicidal effect Ga” value in series [8] and in [14] was 5 (Weed-killing rate is 100%.) throughout. Besides, the “Herbicidal effect Xs” value in series [9] and in [15] was 5 (Weed-killing rate is 100%.) throughout. Also, the “Herbicidal effect Am” value in [10] and in [16] was 5 (Weed-killing rate is 100%.) each time. Besides, the “Herbicidal effect At” value in series [11] and in [17] was 5 (Weed-killing rate is 100%.) in each case. Further, the figures for the “Phytotoxicity So” value in the series on soybean plant (So) and in the series with soybean plant were 0 (Crop-killing rate is 0-20% (No Phytotoxicity).) and 3 (Crop-killing rate is 70-89%.), respectively. For the same molecule, the figures for the “Phytotoxicity Wh” value in the series with wheat (Wh) and in the series on wheat were 0 (Crop-killing rate is 0-20% (No Phytotoxicity).) and 2 (Crop-killing rate is 40-69%.), respectively.
